Measured values as given in ChEMBL document CHEMBL6121046, “Discovery of Novel Hydrazide-Based HDAC3 Inhibitors as Epigenetic Immunomodulators for Cancer Immunotherapy” (J Med Chem, 2025).

Key:
Histone deacetylase 3 = Histone deacetylase 3 (Homo sapiens, UniProt O15379); assay: Inhibition of human recombinant HDAC3 pre-incubated with compounds for 10 mins measured followed by 60 mins of substrate addition
Histone deacetylase 1 = Histone deacetylase 1 (Homo sapiens, UniProt Q13547); assay: Inhibition of human recombinant HDAC1 pre-incubated with compounds for 10 mins measured followed by 60 mins of substrate addition
[1] = molecular target: T1, Protein deacetylase HDAC6 (Homo sapiens, UniProt Q9UBN7); assay: Inhibition of human recombinant HDAC6 pre-incubated with compounds for 10 mins measured followed by 60 mins of substrate addition
T1 sequence (Q9UBN7 whole entry): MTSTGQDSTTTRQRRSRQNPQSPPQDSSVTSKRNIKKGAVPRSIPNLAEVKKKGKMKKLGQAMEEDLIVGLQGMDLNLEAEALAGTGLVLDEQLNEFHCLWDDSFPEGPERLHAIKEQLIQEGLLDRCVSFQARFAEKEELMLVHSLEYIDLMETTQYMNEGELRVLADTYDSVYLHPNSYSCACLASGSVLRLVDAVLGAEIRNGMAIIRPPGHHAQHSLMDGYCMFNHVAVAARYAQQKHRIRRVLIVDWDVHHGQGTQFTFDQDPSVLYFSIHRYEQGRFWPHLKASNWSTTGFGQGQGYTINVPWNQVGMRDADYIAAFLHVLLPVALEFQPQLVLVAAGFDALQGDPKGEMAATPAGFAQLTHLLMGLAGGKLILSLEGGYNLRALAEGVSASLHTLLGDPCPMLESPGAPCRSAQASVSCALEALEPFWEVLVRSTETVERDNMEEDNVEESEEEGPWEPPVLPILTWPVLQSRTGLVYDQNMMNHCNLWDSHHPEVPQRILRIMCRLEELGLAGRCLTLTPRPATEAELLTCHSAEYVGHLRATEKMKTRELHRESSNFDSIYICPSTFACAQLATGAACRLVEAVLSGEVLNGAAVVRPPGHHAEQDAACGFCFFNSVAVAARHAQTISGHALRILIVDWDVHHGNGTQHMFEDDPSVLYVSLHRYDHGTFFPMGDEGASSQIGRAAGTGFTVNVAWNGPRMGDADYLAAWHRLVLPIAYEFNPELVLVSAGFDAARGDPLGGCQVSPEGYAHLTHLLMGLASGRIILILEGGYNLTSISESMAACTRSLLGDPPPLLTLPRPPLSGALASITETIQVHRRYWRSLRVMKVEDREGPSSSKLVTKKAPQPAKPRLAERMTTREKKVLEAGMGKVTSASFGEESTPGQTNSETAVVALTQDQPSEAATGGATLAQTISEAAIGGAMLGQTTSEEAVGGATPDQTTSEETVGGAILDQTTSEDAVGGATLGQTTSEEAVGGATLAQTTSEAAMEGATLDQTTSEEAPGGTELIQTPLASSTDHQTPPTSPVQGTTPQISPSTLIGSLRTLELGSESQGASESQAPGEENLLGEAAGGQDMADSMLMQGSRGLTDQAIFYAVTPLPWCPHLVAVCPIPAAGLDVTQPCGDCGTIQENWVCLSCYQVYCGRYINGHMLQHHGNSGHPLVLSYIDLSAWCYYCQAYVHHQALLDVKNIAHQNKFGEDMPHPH

Histone deacetylase 7 = molecular target: T2, Histone deacetylase 7 (Homo sapiens, UniProt Q8WUI4); assay: Inhibition of human recombinant HDAC7 pre-incubated with compounds for 10 mins measured followed by 60 mins of substrate addition
T2 sequence (Q8WUI4 whole entry): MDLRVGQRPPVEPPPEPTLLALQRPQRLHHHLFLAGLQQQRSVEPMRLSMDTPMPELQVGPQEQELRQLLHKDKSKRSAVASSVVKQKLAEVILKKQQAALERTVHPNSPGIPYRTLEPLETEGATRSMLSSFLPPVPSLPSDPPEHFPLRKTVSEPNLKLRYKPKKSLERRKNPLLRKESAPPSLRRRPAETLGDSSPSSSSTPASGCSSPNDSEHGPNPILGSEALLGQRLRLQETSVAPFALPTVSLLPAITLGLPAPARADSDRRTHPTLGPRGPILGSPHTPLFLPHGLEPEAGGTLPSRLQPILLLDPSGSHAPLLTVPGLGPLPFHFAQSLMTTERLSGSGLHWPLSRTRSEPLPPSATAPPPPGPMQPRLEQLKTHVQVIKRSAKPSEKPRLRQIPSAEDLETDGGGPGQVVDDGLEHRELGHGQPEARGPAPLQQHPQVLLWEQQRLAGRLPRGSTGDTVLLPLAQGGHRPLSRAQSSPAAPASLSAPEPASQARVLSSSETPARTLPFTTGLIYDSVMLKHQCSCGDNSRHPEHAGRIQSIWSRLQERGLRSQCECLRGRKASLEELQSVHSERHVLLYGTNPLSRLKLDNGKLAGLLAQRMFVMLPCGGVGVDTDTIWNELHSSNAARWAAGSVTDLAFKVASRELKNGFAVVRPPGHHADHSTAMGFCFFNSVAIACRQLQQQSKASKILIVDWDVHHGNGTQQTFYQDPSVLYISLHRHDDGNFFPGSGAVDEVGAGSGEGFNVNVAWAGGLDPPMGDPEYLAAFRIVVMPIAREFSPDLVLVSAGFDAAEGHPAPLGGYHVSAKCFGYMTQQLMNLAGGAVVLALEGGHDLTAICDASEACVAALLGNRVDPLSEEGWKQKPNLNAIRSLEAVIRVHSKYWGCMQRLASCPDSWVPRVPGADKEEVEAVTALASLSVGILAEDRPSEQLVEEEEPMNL

Histone deacetylase 8 = molecular target: T3, Histone deacetylase 8 (Homo sapiens, UniProt Q9BY41); assay: Inhibition of human recombinant HDAC8 pre-incubated with compounds for 10 mins measured followed by 60 mins of substrate addition
T3 sequence (Q9BY41 whole entry): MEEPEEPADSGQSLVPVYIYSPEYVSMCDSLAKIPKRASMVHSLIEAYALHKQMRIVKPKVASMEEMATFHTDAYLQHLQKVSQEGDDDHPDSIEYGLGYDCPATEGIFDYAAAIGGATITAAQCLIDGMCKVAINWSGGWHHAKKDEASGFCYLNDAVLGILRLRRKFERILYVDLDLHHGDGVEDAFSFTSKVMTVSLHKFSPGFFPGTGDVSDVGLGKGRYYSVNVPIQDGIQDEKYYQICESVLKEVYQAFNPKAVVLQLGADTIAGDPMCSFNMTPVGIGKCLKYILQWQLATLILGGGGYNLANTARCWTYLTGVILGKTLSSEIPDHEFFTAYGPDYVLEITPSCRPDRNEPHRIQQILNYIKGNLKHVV

B16-F10 = assay: Antiproliferative activity against mouse B16-F10 cells at 1 uM measured after 48 hrs incubation by MTT assay relative to control
HeLa = assay: Antiproliferative activity against human HeLa cells measured after 48 hrs incubation by MTT assay relative to control; type: functional, cell-based
HepG2 = assay: Antiproliferative activity against human HepG2 cells measured after 48 hrs incubation by MTT assay relative to control; type: functional, cell-based; conditions: HepG2, 48 h
MCF7 = assay: Antiproliferative activity against human MCF7 cells measured after 48 hrs incubation by MTT assay relative to control; type: functional, cell-based; conditions: MCF7, 48 h
MC-38 = assay: Antiproliferative activity against mouse MC38 cells measured after 48 hrs incubation by MTT assay relative to control; type: functional, cell-based; conditions: MC-38, 48 h
[2] = Antiproliferative activity against […] cells measured after 48 hrs incubation by MTT assay relative to control; type: functional, cell-based; conditions: Mus musculus, Lung cancer cell line
HCT-116 = assay: Antiproliferative activity against human HCT-116 cells measured after 48 hrs incubation by MTT assay relative to control; type: functional, cell-based; conditions: HCT-116, 48 h
B16-F10 (Mus musculus) = assay: Antiproliferative activity against mouse B16-F10 cells measured after 48 hrs incubation by MTT assay relative to control; conditions: B16-F10, 48 h

Sequence of Histone deacetylase 1 (Q13547 whole entry): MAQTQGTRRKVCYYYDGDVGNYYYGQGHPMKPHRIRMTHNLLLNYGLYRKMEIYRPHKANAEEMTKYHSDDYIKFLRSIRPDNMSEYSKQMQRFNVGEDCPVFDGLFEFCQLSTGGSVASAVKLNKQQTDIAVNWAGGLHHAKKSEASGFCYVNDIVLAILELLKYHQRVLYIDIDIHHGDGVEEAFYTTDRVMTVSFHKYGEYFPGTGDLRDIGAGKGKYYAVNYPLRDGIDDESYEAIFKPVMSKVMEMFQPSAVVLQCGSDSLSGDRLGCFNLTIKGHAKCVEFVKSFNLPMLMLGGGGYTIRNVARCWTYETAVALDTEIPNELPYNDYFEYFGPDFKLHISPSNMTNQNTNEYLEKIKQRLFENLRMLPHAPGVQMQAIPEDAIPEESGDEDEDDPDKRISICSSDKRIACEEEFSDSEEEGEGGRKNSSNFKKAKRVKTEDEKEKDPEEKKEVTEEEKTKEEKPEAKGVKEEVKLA
Sequence of Histone deacetylase 3 (O15379 whole entry): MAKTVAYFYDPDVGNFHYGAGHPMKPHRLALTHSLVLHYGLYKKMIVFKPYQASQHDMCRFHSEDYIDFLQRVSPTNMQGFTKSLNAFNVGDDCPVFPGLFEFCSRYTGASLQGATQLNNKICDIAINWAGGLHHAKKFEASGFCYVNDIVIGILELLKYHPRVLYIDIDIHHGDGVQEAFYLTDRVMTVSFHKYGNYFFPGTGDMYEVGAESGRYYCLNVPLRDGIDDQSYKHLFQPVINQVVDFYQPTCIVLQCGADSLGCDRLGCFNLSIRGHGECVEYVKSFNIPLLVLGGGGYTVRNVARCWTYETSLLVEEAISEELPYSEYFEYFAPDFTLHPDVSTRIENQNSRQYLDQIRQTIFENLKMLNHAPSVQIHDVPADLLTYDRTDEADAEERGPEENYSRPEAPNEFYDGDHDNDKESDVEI

COc1ccc(-c2ncc(C(=O)NCCCCCCC(=O)NO)s2)c(OC)c1
IC50 (Histone deacetylase 3): 31 nM

CCCNNC(=O)c1ccc(CNC(=O)c2cnc(-c3ccc4c(c3)OCCO4)[nH]2)cc1
IC50 (Histone deacetylase 1): 3.91 µM | IC50 (Histone deacetylase 3): 290 nM | IC50 [1]: > 10 µM | IC50 (Histone deacetylase 7): > 10 µM | IC50 (Histone deacetylase 8): > 10 µM | Activity (B16-F10): 23.11%

Nc1ccccc1NC(=O)c1ccc(CNC(=O)c2cnc(-c3ccc4ccccc4c3)[nH]2)cc1
IC50 (Histone deacetylase 1): 4.62 µM | IC50 (Histone deacetylase 3): 100 nM | IC50 [1]: > 10 µM | IC50 (Histone deacetylase 7): > 10 µM | IC50 (Histone deacetylase 8): > 10 µM | Activity (B16-F10): 28.15%

Nc1ccccc1NC(=O)c1ccc(CNC(=O)c2cnc(-c3ccc(F)cc3)[nH]2)cc1
Activity (B16-F10): 9.98%

Nc1ccccc1NC(=O)c1ccc(CNC(=O)c2cnc(-c3ccc4c(c3)OCCO4)[nH]2)cc1
IC50 (Histone deacetylase 1): 3.66 µM | IC50 (Histone deacetylase 3): 330 nM | IC50 [1]: > 10 µM | IC50 (Histone deacetylase 7): > 10 µM | IC50 (Histone deacetylase 8): > 10 µM | Activity (B16-F10): 13.1%

CCCNNC(=O)c1ccc(CNC(=O)c2ncc(CNc3ccccc3)s2)cc1
IC50 (HeLa): 3.77 µM | IC50 (HepG2): 670 nM | IC50 (MCF7): 1760 nM | IC50 (MC-38): 2350 nM | IC50 [2]: 250 nM | IC50 (HCT-116): 310 nM | IC50 (B16-F10 (Mus musculus)): 1770 nM | Activity (B16-F10): 57.29%

Nc1ccccc1NC(=O)c1ccc(CNC(=O)c2cnc(-c3cccc4ccccc34)[nH]2)cc1
IC50 (Histone deacetylase 1): 2.43 µM | IC50 (Histone deacetylase 3): 96 nM | IC50 [1]: 9.43 µM | IC50 (Histone deacetylase 7): > 10 µM | IC50 (Histone deacetylase 8): > 10 µM | Activity (B16-F10): 39.28%

CCCNNC(=O)c1ccc(CNC(=O)c2cnc(-c3ccc4[nH]ccc4c3)[nH]2)cc1
Activity (B16-F10): 2.77%

COc1ccc(-c2ncc(C(=O)NCc3ccc(C(=O)Nc4ccccc4N)cc3)[nH]2)cc1
IC50 (Histone deacetylase 1): 4.45 µM | IC50 (Histone deacetylase 3): 100 nM | IC50 [1]: > 10 µM | IC50 (Histone deacetylase 7): > 10 µM | IC50 (Histone deacetylase 8): > 10 µM | Activity (B16-F10): 28.07%
